Key:
[1] = Oral bioavailability in BALB/c mouse at 50 mg/kg, […] measured upto 24 hrs relative to control; format: ADME, organism-based; conditions: in vivo
[2] = target: T1, ATP-dependent translocase ABCB1 (Homo sapiens, UniProt P08183); assay: Inhibition of ABCB1 (unknown origin)
K562/A02 = assay: Reversal of doxorubicin-induced multidrug resistance in human K562/A02 cells assessed as reversal fold of doxorubicin cytotoxicity by MTT assay; format: functional
[3] = target: T1, ATP-dependent translocase ABCB1; assay: Inhibition of P-gp (unknown origin) mediated ATP hydrolysis

T1 sequence (P08183 whole entry): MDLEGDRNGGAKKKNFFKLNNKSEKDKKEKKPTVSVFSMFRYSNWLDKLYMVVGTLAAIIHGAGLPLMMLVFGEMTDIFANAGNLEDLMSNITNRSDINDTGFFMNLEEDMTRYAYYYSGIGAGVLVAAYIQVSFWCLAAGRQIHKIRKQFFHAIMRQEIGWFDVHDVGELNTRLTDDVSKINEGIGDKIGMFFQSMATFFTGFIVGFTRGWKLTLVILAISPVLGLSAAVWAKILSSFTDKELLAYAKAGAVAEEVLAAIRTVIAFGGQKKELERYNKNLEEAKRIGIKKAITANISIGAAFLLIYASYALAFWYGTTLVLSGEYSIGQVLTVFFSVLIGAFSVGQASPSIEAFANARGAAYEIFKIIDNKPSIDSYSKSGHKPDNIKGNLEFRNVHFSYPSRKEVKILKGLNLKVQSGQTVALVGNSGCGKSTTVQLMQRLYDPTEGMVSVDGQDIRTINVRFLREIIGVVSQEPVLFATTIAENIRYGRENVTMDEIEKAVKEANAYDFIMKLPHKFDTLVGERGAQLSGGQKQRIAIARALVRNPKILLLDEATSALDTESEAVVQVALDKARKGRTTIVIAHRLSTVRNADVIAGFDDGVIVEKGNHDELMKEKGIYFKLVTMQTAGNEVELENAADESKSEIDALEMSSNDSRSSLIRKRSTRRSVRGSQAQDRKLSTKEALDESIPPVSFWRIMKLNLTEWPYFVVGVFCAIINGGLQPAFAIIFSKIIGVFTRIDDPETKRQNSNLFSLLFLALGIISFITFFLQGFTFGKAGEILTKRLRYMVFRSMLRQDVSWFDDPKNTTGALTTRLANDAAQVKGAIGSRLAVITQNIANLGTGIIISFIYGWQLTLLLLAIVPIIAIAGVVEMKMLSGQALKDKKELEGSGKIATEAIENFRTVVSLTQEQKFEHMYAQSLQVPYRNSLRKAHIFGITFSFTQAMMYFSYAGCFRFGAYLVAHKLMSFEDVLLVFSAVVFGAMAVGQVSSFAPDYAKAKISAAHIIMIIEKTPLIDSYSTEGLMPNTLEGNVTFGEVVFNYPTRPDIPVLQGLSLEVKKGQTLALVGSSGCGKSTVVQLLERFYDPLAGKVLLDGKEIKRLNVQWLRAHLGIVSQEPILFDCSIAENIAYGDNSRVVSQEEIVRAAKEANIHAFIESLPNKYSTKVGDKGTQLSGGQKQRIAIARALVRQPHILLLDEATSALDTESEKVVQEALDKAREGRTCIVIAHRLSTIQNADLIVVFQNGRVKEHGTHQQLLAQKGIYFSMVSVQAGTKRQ

Compound	Ratio (K562/A02)	other results
NC(=O)c1c2n(c3c(N4CCN(CCc5ccc(F)c(F)c5)CC4)ncnc13)CCCC2	–	bioavailability [1]: > 50%
O=[N+]([O-])c1cc(Nc2nc(-c3ccccc3)nc3ccccc23)ccc1O	–	IC50 [2]: 0.08 µM
CCCCC(CC(C)=O)n1cnc2c(N)ncnc21 (stereo unspecified)	1.09	–
CCCCCC(CC(C)=O)n1cnc2c(N)ncnc21 (stereo unspecified)	1.09	–
Nc1ncnc2c1ncn2[C@@H]1O[C@H](COC(=O)c2ccc(S(=O)(=O)F)cc2)[C@@H](O)[C@H]1O	–	IC50 [3]: 210 µM
CCCCCCCCCCCCCCCCC(=O)CC(CCCCCCCC)n1cnc2c(N)ncnc21 (stereo unspecified)	1.09	–
